# Reference: US9981909B2 (Janssen Pharmaceutica NV, priority 2008, dated 2018)
# Structures can show the parent of a compound that is named as a salt.
# Molecular target: rat 5-HT7 receptor (Rattus norvegicus (Rat), UniProt P32305)
# Experiment: r5-HT7 binding assay, competitive radioligand binding with [3H]5-CT
# Conditions: rat 5-HT7, HEK-293 membranes
# Protocol: (§1) Receptor binding was performed using membrane fractions prepared from the HEK-293 cell line recombinantly expressing rat 5-HT7 receptors (NCBI accession NM_022938). Compound affinity for the rat 5-HT7 receptor subtype was evaluated by competitive radioligand binding assays using 5-carboxamido[^3H]tryptamine ([^3H]5-CT) (Amersham Biosciences, cat. 90000403) detection. HitHunter™ cAMP assays are in-vitro based competitive immunoassays. The assay was performed on the HEK-293 cell line stably transfected with r5-HT7 receptor. Cells were pre-incubated with test compounds for 10 minutes. For antagonist testing, the cells were then challenged with 100 nM 5-CT for 20 minutes. Cells were then lysed and cAMP measured according to manufacturers protocol (Amersham, cat. NET791250UC) or [^3H]mesulergine (Amersham, cat. TRK1041). The assay was performed on membranes prepared from HEK-293 cells stably transfected with h5-HT6. Following centrifugation, membranes were resuspended and incubated for 60 min at room temperature with 1.7 nM [^3H]LSD in the presence of increasing concentration of test compounds. Nonspecific binding was defined in the presence of 10 μM clozapine (Tocris, cat. TRK1068). Homogenized HEK-293 membranes expressing the human SERT were incubated in 50 mM Tris-HCl (pH 7.5), 120 mM NaCl, 5 mM KCl with [^3H]-citalopram (3 nM) with or without test compounds. Nonspecific binding was determined in the presence of 10 μM fluoxetine. Radioactivity readouts and Ki values were performed as previously described for r5-HT7. […] Compounds were assayed in their free form or as salts, as indicated in the Examples section above.
# rat 5-HT7 receptor, sequence (P32305 1-435): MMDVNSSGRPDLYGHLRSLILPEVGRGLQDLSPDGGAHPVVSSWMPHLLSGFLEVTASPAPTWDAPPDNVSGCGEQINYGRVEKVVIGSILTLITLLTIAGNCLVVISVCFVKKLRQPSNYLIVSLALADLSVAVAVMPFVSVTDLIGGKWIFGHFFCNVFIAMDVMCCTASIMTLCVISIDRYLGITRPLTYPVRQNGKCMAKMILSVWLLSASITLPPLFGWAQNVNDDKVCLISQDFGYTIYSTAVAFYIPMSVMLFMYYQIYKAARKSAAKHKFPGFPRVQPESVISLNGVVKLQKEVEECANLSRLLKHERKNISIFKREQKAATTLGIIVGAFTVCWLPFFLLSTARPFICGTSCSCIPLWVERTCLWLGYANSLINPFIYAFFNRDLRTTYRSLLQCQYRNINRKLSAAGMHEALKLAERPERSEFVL
row,Compound,Ki [nM]
1,O=C(c1ccccc1)c1ccc(Br)cc1OC1CNC1 [Example 280],98
2,"CN1CC(COc2cc(Br)ccc2OCc2cccc(Cl)c2)C1 [Example 234, 3-[5-Bromo-2-(3-chloro-benzyloxy)-phenoxymethyl]-1-methyl-azetidine]",130
3,"Clc1cccc(COc2ccc(Cl)cc2COC2CNC2)c1 [Example 238, 3-[5-Chloro-2-(3-chloro-benzyloxy)-benzyloxy]-azetidine]",200
4,"OC1(COc2cc(Br)ccc2OCc2cccc(Cl)c2)CNC1 [Example 235, 3-[5-Bromo-2-(3-chloro-benzyloxy)-phenoxymethyl]-azetidin-3-ol]",665
5,"O=C(c1cccc(Cl)c1)c1ccc(Cl)cc1OC1CNC1 [Example 298, [2-(Azetidin-3-yloxy)-4-chloro-phenyl]-(3-chloro-phenyl)-methanone]",102
6,"Clc1cccc(COc2ccc(Br)cc2COC2CNC2)c1 [Example 237, 3-[5-Bromo-2-(3-chloro-benzyloxy)-benzyloxy]-azetidine]",120
7,CC1(Oc2cc(Br)ccc2OCc2cccc(C(F)(F)F)c2)CNC1 [Example 217],34
8,"Cc1ccccc1C(=O)c1ccc(Br)cc1OC1CNC1 [Example 285, [2-(Azetidin-3-yloxy)-4-bromo-phenyl]-o-tolyl-methanone]",3000
9,"Clc1ccc(OCc2nc(C3CCC3)no2)c(OC2CNC2)c1 [Example 240, 5-[2-(Azetidin-3-yloxy)-4-chloro-phenoxymethyl]-3-cyclobutyl-[1,2,4]oxadiazole]",252
10,"CCC1(Oc2cc(Br)ccc2OCc2cccc(Cl)c2)CNC1 [Example 213, 3-[5-Bromo-2-(3-chloro-benzyloxy)-phenoxy]-3-ethyl-azetidine]",4590

# Same assay, conditions: rat 5-HT7 receptor, HEK-293 membranes
row,Compound,Ki [nM]
1,"C[C@H](Oc1ccc(Cl)cc1OC1CNC1)c1cccc(C(F)(F)F)c1 [Example 102, (S)-3-[5-Chloro-2-[1-(3-trifluoromethyl-phenyl)-ethoxy]-phenoxy]-azetidine trifluoroacetate]",376
2,"Clc1cnc(OCc2ccccc2)c(OC2CNC2)c1 [Example 196, 3-(Azetidin-3-yloxy)-2-benzyloxy-5-chloro-pyridine]",359
3,"CC(Oc1ccc(Cl)cc1OC1CN(Cc2ccccc2)C1)c1cccc(C(F)(F)F)c1 (racemic) [Example 108, (±)-1-Benzyl-3-[5-chloro-2-[1-(3-trifluoromethyl-phenyl)-ethoxy]-phenoxy]-azetidine]",36
4,"CON=C(COc1ccc(Cl)cc1OC1CNC1)c1ccccc1 [Example 182, 2-[2-(Azetidin-3-yloxy)-4-chloro-phenoxy]-1-phenyl-ethanone O-methyl-oxime]",76
5,"Fc1ccc2c(c1)CC(Oc1ccc(Cl)cc1OC1CNC1)C2 (centres unmarked) [Example 175, 3-[5-Chloro-2-(5-fluoro-indan-2-yloxy)-phenoxy]-azetidine]",11
6,"Clc1ccc(OCC2CCOC2)c(OC2CNC2)c1 (centres unmarked) [Example 163, 3-[5-Chloro-2-(tetrahydro-furan-3-ylmethoxy)-phenoxy]-azetidine]",766
7,"Fc1cccc(COc2ccc(Br)cc2OC2CN(C3CCC3)C2)c1 [Example 21, 3-[5-Bromo-2-(3-fluoro-benzyloxy)-phenoxy]-1-cyclobutyl-azetidine]",20
8,"CN1CCC(Oc2ccccc2OCc2cccc(OS(C)(=O)=O)c2)C1 (racemic) [Example 100, (±)-Methanesulfonic acid 3-[2-(1-methyl-pyrrolidin-3-yloxy)-phenoxymethyl]-phenyl ester]",150
9,"Fc1cccc(COc2ccc(Br)cc2OC2CN(c3ccccc3)C2)c1 [Example 172, 3-[5-Bromo-2-(3-fluoro-benzyloxy)-phenoxy]-1-phenyl-azetidine]",5000
10,"CC(Oc1ccc(Cl)cc1OC1CNC1)c1ccc(Cl)c(Cl)c1 (racemic) [Example 126, (±)-3-[5-Chloro-2-[1-(3,4-dichloro-phenyl)-ethoxy]-phenoxy]-azetidine]",38
11,"C[C@H](Oc1ccc(Cl)cc1OC1CN(C)C1)c1cccc(C(F)(F)F)c1 [Example 103, (S)-3-[5-Chloro-2-[1-(3-trifluoromethyl-phenyl)-ethoxy]-phenoxy]-1-methyl-azetidine]",27
12,"CCOC(=O)c1cc(COc2ccc(Cl)cc2OC2CNC2)oc1C(F)(F)F [Example 76, 5-[2-(Azetidin-3-yloxy)-4-chloro-phenoxymethyl]-2-trifluoromethyl-furan-3-carboxylic acid ethyl ester]",5000
13,"Clc1cccc(COc2ccc(-c3ccsc3)cc2OC2CNC2)c1 [Example 210, 3-[2-(3-Chloro-benzyloxy)-5-thiophen-3-yl-phenoxy]-azetidine]",506
14,"CN1CCC(Oc2cc(Br)ccc2OCc2cccc(OS(C)(=O)=O)c2)C1 (racemic) [Example 99, (±)-Methanesulfonic acid 3-[4-bromo-2-(1-methyl-pyrrolidin-3-yloxy)-phenoxymethyl]-phenyl ester]",5
15,"Fc1cc(Cl)cc(OC2CNC2)c1OCc1ccccc1 [Example 197, 3-(2-Benzyloxy-5-chloro-3-fluoro-phenoxy)-azetidine]",1420
16,"CC(Oc1ccc(Cl)cc1OC1CCNCC1)c1ccccc1F (racemic) [Example 138, (±)-4-[5-Chloro-2-[1-(2-fluoro-phenyl)-ethoxy]-phenoxy]-piperidine]",42

row,Compound,Ki [nM]
1,"CCC(Oc1ccc(Cl)cc1OC1CCNCC1)c1cccc(C(F)(F)F)c1 (racemic) [Example 141, (±)-4-[5-Chloro-2-[1-(3-trifluoromethyl-phenyl)-propoxy]-phenoxy]-piperidine]",450
2,"O=C(O)c1cc(COc2ccc(Cl)cc2OC2CNC2)oc1C(F)(F)F [Example 75, 5-[2-(Azetidin-3-yloxy)-4-chloro-phenoxymethyl]-2-trifluoromethyl-furan-3-carboxylic acid trifluoroacetate]",9000
3,"Cc1cc(COc2ccc(Cl)cc2OC2CNC2)no1 [Example 30, 3-[2-(Azetidin-3-yloxy)-4-chloro-phenoxymethyl]-5-methyl-isoxazole]",105
4,"FC(F)(F)c1ccc(COc2ccc(Cl)cc2OC2CCCNC2)o1 (racemic) [Example 69, (±)-3-[5-Chloro-2-(5-trifluoromethyl-furan-2-ylmethoxy)-phenoxy]-piperidine]",94
5,"Fc1ccc(OCc2cccc(Cl)c2)c(OC2CNC2)c1 [Example 202, 3-[2-(3-Chloro-benzyloxy)-5-fluoro-phenoxy]-azetidine hydrochloride]",66
6,"CC(Oc1ccc(Cl)cc1OC1CCNCC1)c1cccc(OC(F)(F)F)c1 (racemic) [Example 137, (±)-4-[5-Chloro-2-[1-(3-trifluoromethoxy-phenyl)-ethoxy]-phenoxy]-piperidine]",472
7,"FC(F)(F)c1ccc(COc2ccc(Cl)cc2OC2CNC2)cn1 [Example 82, 5-[2-(Azetidin-3-yloxy)-4-chloro-phenoxymethyl]-2-trifluoromethyl-pyridine]",198
8,"Clc1ccc(OCc2ccccc2)c(OC2CCNCC2)c1 [Example 62, 4-(2-Benzyloxy-5-chloro-phenoxy)-piperidine]",34
9,"CC(Oc1ccc(Cl)cc1OC1CNC1)c1cccc(C#N)c1 (racemic) [Example 125, (±)-3-[1-[2-(Azetidin-3-yloxy)-4-chloro-phenoxy]-ethyl]-benzonitrile]",104
10,"CCC(Oc1ccc(Cl)cc1OC1CNC1)c1ccccc1 (centres unmarked) [Example 147, 3-[5-Chloro-2-(1-phenyl-propoxy)-phenoxy]-azetidine]",211
11,"CC(Oc1ccc(Cl)cc1OC1CN(C2CCC2)C1)c1cccc(C(F)(F)F)c1 (racemic) [Example 107, (±)-3-[5-Chloro-2-[1-(3-trifluoromethyl-phenyl)-ethoxy]-phenoxy]-1-cyclobutyl-azetidine]",90
12,"CC(Oc1ccc(Cl)cc1OC1CNC1)c1nccs1 (centres unmarked) [Example 133, 2-[1-[2-(Azetidin-3-yloxy)-4-chloro-phenoxy]-ethyl]-thiazole]",591
13,"O=C(O)C(Oc1ccc(Cl)cc1OC1CNC1)c1ccccc1 (centres unmarked) [Example 149, [2-(Azetidin-3-yloxy)-4-chloro-phenoxy]-phenyl-acetic acid hydrochloride]",> 10000
14,"N#Cc1ccc(COc2ccc(Cl)cc2OC2CNC2)cc1 [Example 44, 4-[2-(Azetidin-3-yloxy)-4-chloro-phenoxymethyl]-benzonitrile]",87
15,"FC(F)(F)Oc1ccc(COc2ccc(Br)cc2OC2CNC2)cc1Cl [Example 11, 3-[5-Bromo-2-(3-chloro-4-trifluoromethoxy-benzyloxy)-phenoxy]-azetidine]",53
16,"CC(Oc1ccc(Cl)cc1OC1CNC1)c1cc(F)cc(C(F)(F)F)c1 (racemic) [Example 119, (±)-3-[5-Chloro-2-[1-(3-fluoro-5-trifluoromethyl-phenyl)-ethoxy]-phenoxy]-azetidine]",288

# Molecular target: human SERT (Homo sapiens (Human), UniProt P31645)
# Sequence (P31645 whole entry): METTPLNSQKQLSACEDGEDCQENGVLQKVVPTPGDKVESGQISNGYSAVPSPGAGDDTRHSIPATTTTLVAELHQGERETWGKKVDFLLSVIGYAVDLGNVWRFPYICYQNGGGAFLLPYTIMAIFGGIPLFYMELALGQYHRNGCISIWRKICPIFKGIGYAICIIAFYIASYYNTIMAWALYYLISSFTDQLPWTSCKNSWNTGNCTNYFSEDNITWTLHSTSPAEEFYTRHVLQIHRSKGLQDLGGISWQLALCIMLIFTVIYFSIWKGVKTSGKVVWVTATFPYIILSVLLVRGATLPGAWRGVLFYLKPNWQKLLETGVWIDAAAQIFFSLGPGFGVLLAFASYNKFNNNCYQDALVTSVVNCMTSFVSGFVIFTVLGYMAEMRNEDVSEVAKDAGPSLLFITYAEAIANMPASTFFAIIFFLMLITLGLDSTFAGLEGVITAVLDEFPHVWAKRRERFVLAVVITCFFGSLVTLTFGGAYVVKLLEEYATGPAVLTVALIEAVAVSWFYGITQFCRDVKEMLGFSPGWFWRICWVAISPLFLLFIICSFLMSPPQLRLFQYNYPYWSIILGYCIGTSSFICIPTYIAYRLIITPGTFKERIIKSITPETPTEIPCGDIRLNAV
# Experiment: human SERT binding assay with [3H]-citalopram on HEK-293 membranes
# Conditions: read-out: hSERT binding Ki
# Protocol: as §1
row,Compound,Ki [nM]
1,"C[C@H](Oc1ccc(Cl)cc1OC1CNC1)c1cccc(C(F)(F)F)c1 [Example 102, (S)-3-[5-Chloro-2-[1-(3-trifluoromethyl-phenyl)-ethoxy]-phenoxy]-azetidine trifluoroacetate]",954
2,"Clc1cnc(OCc2ccccc2)c(OC2CNC2)c1 [Example 196, 3-(Azetidin-3-yloxy)-2-benzyloxy-5-chloro-pyridine]",53
3,"CC(Oc1ccc(Cl)cc1OC1CN(Cc2ccccc2)C1)c1cccc(C(F)(F)F)c1 (racemic) [Example 108, (±)-1-Benzyl-3-[5-chloro-2-[1-(3-trifluoromethyl-phenyl)-ethoxy]-phenoxy]-azetidine]",5000
4,"CON=C(COc1ccc(Cl)cc1OC1CNC1)c1ccccc1 [Example 182, 2-[2-(Azetidin-3-yloxy)-4-chloro-phenoxy]-1-phenyl-ethanone O-methyl-oxime]",514
5,"Fc1ccc2c(c1)CC(Oc1ccc(Cl)cc1OC1CNC1)C2 (centres unmarked) [Example 175, 3-[5-Chloro-2-(5-fluoro-indan-2-yloxy)-phenoxy]-azetidine]",4
